What all share (test): NCI-60 cell line screen, 48 h
The subject of assay [1] is UACC-257 melanoma.
Assay [2] deals with MOLT-4 leukemia.
Assay [3] has as its system CCRF-CEM leukemia.
For assay [4], the system named is SNB-19 CNS.
For assay [5], the system named is NCI-H460 lung.
The test system of assay [6] is HCT-116 colon.
Assay [7] relates to ACHN renal.
For assay [8], the system named is UO-31 renal.
For assay [9], the system named is SF-539 CNS.
In assay [10] the test system is KM12 colon.
The test system of assay [11] is A498 renal.
The subject of assay [12] is TK-10 renal.

Here are results for 18 compounds from PubChem BioAssay (NCI).

The structures appear in SMILES notation.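 Compound exposure: 48 hours, 5 concentrations, 96-well plates. GI50 = concentration required for 50% inhibition of growth. TGI denotes the concentration required for complete inhibition of growth.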 Where a SMILES comes first, the peptide text is derived from it. [ ]: non-standard residue; d: D form. ξ: configuration not given here. ξLac(3-iPr) = CC(C)CC(O)C(=O)O; NMeV = CN[CH](C(=O)O)C(C)C; NMeA = CN[CH](C)C(=O)O; βAla = NCCC(=O)O

As for `CC(NC(=O)c1ccc(NP(=O)(OCc2ccc([N+](=O)[O-])o2)N(C)CCCCCl)cc1)c1ccc(OCC2CCCCC2)c(C(N)=O)c1` (configuration not stated), the TGI in [1] amounted to 26.6 µM; in assay [2] it was 68.8 µM; in assay [3], 16.5 µM; in [4], 90.8 µM; in assay [5], 72.3 µM; in [6], 31.6 µM. In addition, the TGI in assay [7] was above 100 µM; in [8], above 100 µM; in assay [9], 33.7 µM; in [10], 32 µM; in [11], 49.2 µM; in assay [12] it was 80.7 µM.

As for `CO/N=C\c1cc(O)c(O)c(/C=N/OC)c1`, the TGI in assay [1], in [2], in assay [3], in assay [4], in assay [5] and in [6] was above 100 µM throughout. In addition, the TGI in assay [7], in [8], in assay [9], in assay [10], in [11] and in [12] was above 100 µM each time.

In the case of `CCC(C)C1NC(=O)C2CCCN2C(=O)C(CC(C)C)OC(=O)CCNC(=O)C(C)N(C)C(=O)C(C(C)C)N(C)C1=O` (configuration not stated) (cyclo([ξLac(3-iPr)]PI[NMeV][NMeA][βAla]); configuration not given here), the TGI is 41.8 µM in assay [1]; 21 µM in assay [2]; above 17.9 µM in assay [3]; above 100 µM in assay [4]; above 100 µM in [5]; 19.6 µM in [6]. In addition, the TGI in [7] is above 83.4 µM; in assay [8], above 42 µM; in assay [9], above 80.3 µM; in [10] it was 45.5 µM; in assay [11], 81.8 µM; in [12], above 100 µM.

Take `O=C1c2ccccc2C(=O)c2c(Nc3cc4c5c(ccc6c7ccc8c9c(cc(Nc%10cccc%11c%10C(=O)c%10ccccc%10C%11=O)c(c3c56)c97)-c3ccccc3C8=O)C(=O)c3ccccc3-4)cccc21`: the TGI in assay [1], in [2], in assay [4], in assay [6], in assay [7] and in [8] was above 100 µM throughout. In addition, the TGI in [10] is above 100 µM; in assay [11] it was 65.1 µM; in assay [12], 96.1 µM.

On to `Cc1ccc(C2COc3cc(O)c(O)cc3C2)cc1` (configuration not stated), for which the TGI amounted to 69.6 µM in [1]; 18.6 µM in [2]; 12.3 µM in [3]; 251 µM in assay [4]; 236 µM in [5]; 23.7 µM in assay [6]. The TGI in assay [8] came out at 101 µM; in [9], 68.4 µM; in assay [10], 127 µM; in assay [11], 130 µM.

Regarding `O=C(c1ccccc1)c1nc2ccc(Cl)cc2c2c1CCCO2`, the TGI in [2], in [4], in [5], in [6], in assay [7] and in assay [8] was above 100 µM in each case. In addition, the TGI in [10] and in assay [12] was above 100 µM throughout.

On to `O=C1C=CC(=O)c2c(O)c(Br)c(Br)c(O)c21`, for which the TGI in [1] was 8.25 µM; in [2], 0.549 µM; in assay [3] it was 3.92 µM; in assay [4] it was 33.1 µM; in [5] it was 34.1 µM; in assay [6] it was 8.57 µM. Further, the TGI stood at 5.99 µM in assay [7]; 6.65 µM in assay [8]; 30.5 µM in assay [9]; 16.7 µM in assay [10]; 36.9 µM in assay [11]; 6.12 µM in [12].

For the compound `COc1cc(C(=O)CC2OC(=O)C(Cl)=C2Cl)ccc1Cl` (configuration not stated), the TGI in [1], in assay [2], in assay [3], in assay [4], in assay [5] and in assay [6] was above 100 µM in each case. The TGI in assay [7], in [8], in assay [9], in assay [10], in assay [11] and in assay [12] was above 100 µM throughout.

For the compound `O=C(c1ccccc1)C1C(c2ccccc2)N1S(=O)(=O)c1ccccc1` (configuration not stated), the TGI in assay [2], in assay [3], in assay [6], in assay [8], in assay [9] and in assay [10] was above 100 µM each time. Besides, the TGI in assay [12] is above 100 µM.

On to `Cc1ccc2c(ccc(/C=C\c3cc(C)c4cccnc4c3O)[n+]2C)c1`, for which the TGI in assay [1] is 28.4 µM; in [2] it was 28.4 µM; in assay [3], 26 µM; in [4], 35 µM; in assay [5], 18 µM; in assay [6], 19.6 µM. For the same compound, the TGI in assay [7] stood at 20.4 µM; in assay [8], 66 µM; in assay [9], 25.1 µM; in assay [10] it was 31.6 µM; in [11], 33.9 µM.

Regarding `OCc1cc2ccncc2c2c1[nH]c1ccccc12`, the TGI in [1] is 51.3 µM; in [2], above 100 µM; in assay [3], above 100 µM; in [5] it was 19.5 µM; in assay [6], 15.7 µM; in assay [7], 15.9 µM. For the same compound, the TGI in [8] is 28 µM; in [9], 14.8 µM; in assay [10] it was above 100 µM; in [11], 19.6 µM; in [12] it was 67.7 µM.

For the compound `CC1(C)N=C(N)N=C(N)N1c1cccc(C(=O)Nc2ccc(S(=O)(=O)F)cc2)c1`, the TGI in assay [1], in [2], in [3], in [4], in [5] and in [6] was above 100 µM each time. In addition, the TGI in assay [7], in assay [8], in assay [9], in assay [10], in [11] and in assay [12] was above 100 µM each time.

For the compound `CCN(CC)c1ccc2nc3ccc(N=Nc4c(O)ccc5ccccc45)cc3[n+](-c3ccccc3)c2c1`, the TGI in assay [1], in assay [2], in [3], in assay [4], in assay [6] and in assay [7] was above 100 µM throughout. The TGI in assay [8], in assay [10] and in [12] was above 100 µM in each case.

For `C[N+](C)(C)c1cc2c(nn1)Nc1ccccc1S2`, the TGI in assay [1] is 62.6 µM; in assay [2], 44.2 µM; in assay [3], 41 µM; in assay [4], above 100 µM; in assay [5] it was 48.8 µM; in [6] it was 66 µM. The TGI was 69.6 µM in [7]; 41.9 µM in [8]; above 100 µM in [10]; 87.8 µM in assay [11]; above 100 µM in [12].

For the compound `CN=C(N)c1ccc(N=C(N)c2ccc(C(N)=Nc3ccc(C(N)=NC)cc3)cc2)cc1`, the TGI in [1], in [2], in assay [3], in assay [4], in assay [5] and in assay [7] was above 100 µM in each case. Besides, the TGI in assay [8], in assay [9], in [10] and in [12] was above 100 µM in each case.

On to `Clc1ccc(C[P+]2(c3ccccc3)CCCCC2)cc1`, for which the TGI is 89.5 µM in assay [1]; above 100 µM in [2]; above 100 µM in [3]; above 100 µM in assay [4]; above 100 µM in assay [5]; above 100 µM in assay [6]. Besides, the TGI in [7], in assay [8], in [9], in assay [10], in [11] and in [12] was above 100 µM throughout.

With `C[C@]12CC[C@@H]3c4ccc(O)cc4CC[C@H]3[C@@H]1CC[C@@H]2OC(=O)CCc1ccccc1`, the TGI in assay [1] is 35.2 µM; in [2] it was 40.3 µM; in [3], 67.5 µM; in assay [4], 37.7 µM; in assay [5] it was 42.6 µM; in assay [6], 48.4 µM. For the same compound, the TGI in [7] is 35.5 µM; in [8] it was 33.8 µM; in assay [10], 78.7 µM; in assay [11] it was 32.6 µM; in [12] it was 33.9 µM.

Regarding `N#C/C(=C\c1ccc(Br)cc1)n1nnc2cc(Cl)c(Cl)cc21`, the GI50 in [2] was 2.51 µM; in [3], 1.71 µM; in [6] it was 1.43 µM; in assay [7], 1.73 µM; in assay [9], 2.2 µM; in assay [10], 2.92 µM. Moreover, the GI50 is 1.78 µM in assay [11] and 3.32 µM in assay [12]. Also, the TGI is above 100 µM in assay [2]; above 100 µM in assay [3]; 3.08 µM in assay [6]; 3.24 µM in assay [7]; 4.86 µM in assay [9]; above 100 µM in assay [10]. Further, the TGI in assay [11] is 4.51 µM; in assay [12], 6.71 µM.
